In patent US11168093B2, “Thienopyridine inhibitors of RIPK2” (Celgene Corporation, priority 2018, dated 2021):

Molecular target: RIPK2 enzyme (Homo sapiens (Human), UniProt O43353)
Test: RIPK2 inhibition assay, TR-FRET LanthaScreen Tracer 199 screening assay
Assay type: binding
Details: 5 nM RIPK2 enzyme, Tracer 199 at 50 nM, Eu-anti-His Antibody at 2 nM, 1 hour incubation
Method: All data was collected using a standard TR-FRET screening assay: LanthaScreen Tracer 199 at 50 nM, Eu-anti-His Antibody at 2 nM, 5 nM RIPK2 enzyme, and 1× Kinase Reaction Buffer. There was a 1 hour incubation prior to read. TR-FRET signal of the interaction (340Ex/665Em/615Em) was read at room temperature with standard setting. Background was subtracted of wells containing no enzyme. Percent inhibition was based on uninhibited controls log (inhibitor) vs. response. Variable slope equation was used with no constraints: Log Y=Bottom+(Top−Bottom)/(1+10^((Log IC50−X)*Hill Slope)).
The compound numbers correspond to the compound numbers above.

Sequence of RIPK2 enzyme (O43353 whole entry): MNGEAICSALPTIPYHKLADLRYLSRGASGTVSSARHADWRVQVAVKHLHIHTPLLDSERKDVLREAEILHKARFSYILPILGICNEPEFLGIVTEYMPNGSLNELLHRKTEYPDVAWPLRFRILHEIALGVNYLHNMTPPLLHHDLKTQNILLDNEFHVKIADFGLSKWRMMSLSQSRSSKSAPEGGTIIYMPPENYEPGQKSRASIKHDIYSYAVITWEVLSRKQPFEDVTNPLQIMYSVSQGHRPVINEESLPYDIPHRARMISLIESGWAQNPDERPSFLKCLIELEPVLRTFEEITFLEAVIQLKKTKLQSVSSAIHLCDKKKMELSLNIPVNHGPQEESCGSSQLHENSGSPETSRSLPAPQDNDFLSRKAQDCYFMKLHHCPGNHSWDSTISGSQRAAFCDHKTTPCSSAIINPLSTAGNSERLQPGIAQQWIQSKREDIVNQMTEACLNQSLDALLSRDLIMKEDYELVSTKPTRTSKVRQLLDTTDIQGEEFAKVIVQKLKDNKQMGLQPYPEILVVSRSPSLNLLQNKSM

Row | IC50 [nM] | Structure (SMILES)
1 | ≤ 10 | C[C@@H]1NCCC=C1c1cc2c(Nc3c(F)cc4scnc4c3F)ccnc2s1 [Example 66b, (S)-4,6-difluoro-N-(2-(2-methyl-1,2,5,6-tetrahydropyridin-3-yl)thieno[2,3-b]pyridin-4-yl)-benzo[d]thiazol-5-amine]
2 | ≤ 10 | CC1NCCCC1c1cc2c(Nc3ccc4scnc4c3F)c(F)cnc2s1 (single isomer, unassigned) [Example 124b, 4-fluoro-N-(5-fluoro-2-(2-methylpiperidin-3-yl)thieno[2,3-b]pyridin-4-yl)benzo[d]thiazol-5-amine]
3 | ≥ 50 | CC1C(c2cc3c(Nc4ccc5scnc5c4F)c(F)cnc3s2)CCCN1C (single isomer, unassigned) [Example 125a, N-(2-(1,2-dimethylpiperidin-3-yl)-5-fluorothieno[2,3-b]pyridin-4-yl)-4-fluorobenzo[d]thiazol-5-amine]
4 | ≤ 10 | CCN1CCC[C@@H](c2cc3c(Nc4cc5ncsc5cc4F)ccnc3s2)[C@H]1C [Example 53b, N-(2-((2R)-1-ethyl-2-methylpiperidin-3-yl)thieno[2,3-b]pyridin-4-yl)-6-fluorobenzo[d]thiazol-5-amine]
5 | 10 to 20 | CC1C(c2cc3c(Nc4c(F)cc5scnc5c4F)c(F)cnc3s2)CCCN1C (single isomer, unassigned) [Example 127d]
6 | ≤ 10 | CC1C(c2cc3c(Nc4ccc5scnc5c4)c(F)cnc3s2)CCCN1C (single isomer, unassigned) [Example 120c, N-(2-(1,2-dimethylpiperidin-3-yl)-5-fluorothieno[2,3-b]pyridin-4-yl)benzo[d]-thiazol-5-amine]
7 | ≤ 10 | CC1NCCCCC1c1cc2c(Nc3cc4ncsc4cc3F)ccnc2s1 (stereo not drawn) [Example 117c]
8 | ≥ 50 | CC1C(c2cc3c(Nc4ccc5scnc5c4)c(F)cnc3s2)CCCN1C (single isomer, unassigned) [Example 120d, N-(2-(1,2-dimethylpiperidin-3-yl)-5-fluorothieno[2,3-b]pyridin-4-yl)benzo[d]-thiazol-5-amine]
9 | 10 to 20 | CC1NCCCC1c1cc2c(Nc3cc4ncsc4cc3F)c(F)cnc2s1 (single isomer, unassigned) [Example 122c, 6-fluoro-N-(5-fluoro-2-(2-methylpiperidin-3-yl)thieno[2,3-b]pyridin-4-yl) benzo[d]thiazol-5-amine]
10 | ≤ 10 | C[C@@H]1NCCC[C@@H]1c1cc2c(Nc3c(F)cc4scnc4c3F)ccnc2s1 [Example 68b, 4,6-difluoro-N-(2-((2S,3S)-2-methylpiperidin-3-yl)thieno[2,3-b]pyridin-4-yl)benzo[d]thiazol-5-amine]
11 | ≤ 10 | C[C@H]1[C@@H](c2cc3c(Nc4c(F)cc5scnc5c4F)ccnc3s2)CCCN1C [Example 71b, N-(2-((2S,3S)-1,2-dimethylpiperidin-3-yl)thieno[2,3-b]pyridin-4-yl)-4,6-difluorobenzo[d]thiazol-5-amine]
12 | ≤ 10 | CC1C(c2cc3c(Nc4ccc5scnc5c4F)c(F)cnc3s2)CCCN1C (single isomer, unassigned) [Example 125c, N-(2-(1,2-dimethylpiperidin-3-yl)-5-fluorothieno[2,3-b]pyridin-4-yl)-4-fluorobenzo[d]thiazol-5-amine]
13 | ≤ 10 | CCN1CCC=C(c2cc3c(Nc4c(F)cc5scnc5c4F)ccnc3s2)[C@@H]1C [Example 72b, (S)—N-(2-(1-ethyl-2-methyl-1,2,5,6-tetrahydropyridin-3-yl)thieno[2,3-b]pyridin-4-yl)-4,6-difluorobenzo[d]thiazol-5-amine]
14 | 20 to 50 | CC1C(c2cc3c(Nc4ccc5scnc5c4)c(F)cnc3s2)CCCN1C (single isomer, unassigned) [Example 120a, N-(2-(1,2-dimethylpiperidin-3-yl)-5-fluorothieno[2,3-b]pyridin-4-yl)benzo[d]-thiazol-5-amine]
15 | ≤ 10 | CC1C(c2cc3c(Nc4ccc5scnc5c4)c(F)cnc3s2)CCCN1C (single isomer, unassigned) [Example 120b, N-(2-(1,2-dimethylpiperidin-3-yl)-5-fluorothieno[2,3-b]pyridin-4-yl)benzo[d]-thiazol-5-amine]

Continued, molecule first:

Row | Structure (SMILES) | IC50 [nM]
16 | C[C@H]1[C@@H](c2cc3c(Nc4ccc5scnc5c4)ccnc3s2)CCCN1C [Example 4d, N-(2-(1,2-dimethylpiperidin-3-yl)thieno[2,3-b]pyridin-4-yl)benzo[d]thiazol-5-amine] | ≤ 10
17 | C[C@@H]1[C@H](c2cc3c(Nc4ccc5scnc5c4)ccnc3s2)CCCN1C [Example 4c, N-(2-(1,2-dimethylpiperidin-3-yl)thieno[2,3-b]pyridin-4-yl)benzo[d]thiazol-5-amine] | ≤ 10
18 | Fc1cc2scnc2c(F)c1Nc1ccnc2sc(C3CCNC34CCOCC4)cc12 (stereo not drawn) [Example 102, N-(2-(8-oxa-1-azaspiro[4.5]decan-4-yl)thieno[2,3-b]pyridin-4-yl)-4,6-difluorobenzo[d]thiazol-5-amine] | 10 to 20
19 | CCN1CCC(c2cc3c(Nc4cc5ncsc5cc4F)ccnc3s2)C1C (stereo not drawn) [Example 76, N-(2-(1-ethyl-2-methylpyrrolidin-3-yl)thieno[2,3-b]pyridin-4-yl)-6-fluorobenzo[d]thiazol-5-amine] | 10 to 20
20 | c1cc(Nc2ccc3scnc3c2)c2cc(C3CCCN4CCCCC34)sc2n1 (stereo not drawn) [Example 21, N-(2-(octahydro-2H-quinolizin-1-yl)thieno[2,3-b]pyridin-4-yl)benzo[d]thiazol-5-amine] | 20 to 50
21 | C[C@H]1[C@@H](c2cc3c(Nc4ccc5scnc5c4F)ccnc3s2)CCCN1C [Example 61, N-(2-((2S,3S)-1,2-dimethylpiperidin-3-yl)thieno[2,3-b]pyridin-4-yl)-4-fluorobenzo[d]thiazol-5-amine] | ≤ 10
22 | CC1(C)C(c2cc3c(Nc4ccc5scnc5c4)ccnc3s2)CCN1CCO (stereo not drawn) [Example 38, 2-(3-(4-(benzo[d]thiazol-5-ylamino)thieno[2,3-b]pyridin-2-yl)-2,2-dimethylpyrrolidin-1-yl)ethan-1-ol] | ≤ 10
23 | CC1C(c2cc3c(Nc4ccc5scnc5c4)c(F)cnc3s2)CCCN1C (stereo not drawn) [Example 120, N-(2-(1,2-dimethylpiperidin-3-yl)-5-fluorothieno[2,3-b]pyridin-4-yl)benzo[d]-thiazol-5-amine] | ≤ 10
24 | CC1NCCC=C1c1cc2c(Nc3ccc4scnc4c3)ccnc2s1 (stereo not drawn) [Example 1, N-(2-(2-methyl-1,2,5,6-tetrahydropyridin-3-yl)thieno[2,3-b]pyridin-4-yl)benzo[d]thiazol-5-amine] | ≤ 10
25 | C1=C(c2cc3c(Nc4ccc5scnc5c4)ccnc3s2)CNCCC1 [Example 112, N-(2-(2,5,6,7-tetrahydro-1H-azepin-3-yl)thieno[2,3-b]pyridin-4-yl)benzo[d]thiazol-5-amine] | ≤ 10
26 | COCC(=O)N1CCC=C(c2cc3c(Nc4ccc5scnc5c4)ccnc3s2)C1C (stereo not drawn) [Example 11, 1-(5-(4-(benzo[d]thiazol-5-ylamino)thieno[2,3-b]pyridin-2-yl)-6-methyl-3,6-dihydro-pyridin-1(2H)-yl)-2-methoxyethan-1-one] | ≤ 10
27 | C1=C(c2cc3c(Nc4ccc5scnc5c4)ccnc3s2)CCNCC1 [Example 105, N-(2-(2,3,6,7-tetrahydro-1H-azepin-4-yl)thieno[2,3-b]pyridin-4-yl)benzo[d]thiazol-5-amine] | ≤ 10
28 | CN1CCCC=C(c2cc3c(Nc4ccc5scnc5c4)ccnc3s2)C1 [Example 113, N-(2-(1-methyl-2,5,6,7-tetrahydro-1H-azepin-3-yl)thieno[2,3-b]pyridin-4-yl)benzo[d]thiazol-5-amine] | ≤ 10
29 | CCN1CCC[C@@H](c2cc3c(Nc4ccc5scnc5c4F)ccnc3s2)[C@@H]1C [Example 63, N-(2-((2S,3R)-1-ethyl-2-methylpiperidin-3-yl)thieno[2,3-b]pyridin-4-yl)-4-fluorobenzo[d]thiazol-5-amine] | ≤ 10
30 | CC1C(c2cc3c(Nc4ccc5scnc5c4)ccnc3s2)CCN1C (stereo not drawn) [Example 28, N-(2-(1,2-dimethylpyrrolidin-3-yl)thieno[2,3-b]pyridin-4-yl)benzo[d]thiazol-5-amine] | ≤ 10
31 | C[C@H]1NCCC[C@H]1c1cc2c(Nc3cc4ncsc4cc3F)ccnc2s1 [Example 50b, 6-fluoro-N-(2-((2R)-2-methylpiperidin-3-yl)thieno[2,3-b]pyridin-4-yl)benzo[d]thiazol-5-amine] | ≤ 10
32 | CC1NCCC1c1cc2c(Nc3ccc4scnc4c3F)ccnc2s1 (stereo not drawn) [Example 87, 4-fluoro-N-(2-(2-methylpyrrolidin-3-yl)thieno[2,3-b]pyridin-4-yl)benzo[d]thiazol-5-amine] | ≤ 10
33 | CCN1CCC(c2cc3c(Nc4ccc5scnc5c4)ccnc3s2)C1C (stereo not drawn) [Example 30, N-(2-(1-ethyl-2-methylpyrrolidin-3-yl)thieno[2,3-b]pyridin-4-yl)benzo[d]thiazol-5-amine] | ≤ 10
34 | CN1CCC(c2cc3c(Nc4cc5ncsc5cc4F)ccnc3s2)C12CCOC2 (stereo not drawn) [Example 82, 6-fluoro-N-(2-(1-methyl-7-oxa-1-azaspiro[4.4]nonan-4-yl)thieno[2,3-b]pyridin-4-yl)benzo[d]thiazol-5-amine] | ≥ 50
35 | c1cc(Nc2ccc3scnc3c2)c2cc(C3CCNC34CCOC4)sc2n1 (stereo not drawn) [Example 42, N-(2-(7-oxa-1-azaspiro[4.4]nonan-4-yl)thieno[2,3-b]pyridin-4-yl)benzo[d]thiazol-5-amine] | 10 to 20
36 | CC1C(c2cc3c(Nc4c(F)cc5scnc5c4F)ccnc3s2)CCN1CCO (stereo not drawn) [Example 95, 2-(3-(4-((4,6-difluorobenzo[d]thiazol-5-yl)amino)thieno[2,3-b]pyridin-2-yl)-2-methyl-pyrrolidin-1-yl)ethan-1-ol] | 10 to 20
